The source of these data is patent US20230338564A1, “NEODEGRADER CONJUGATES” (Orum Therapeutics, Inc., priority 2020, published 2023).

For test [1], the system named is HL-60 (acute myeloid leukemia) cell line. The experiment in a line: In vitro antiproliferation assay, General Procedure 1 (WST-8). It is filed as cell-based. The note with it: AML; conjugates DAR 8, Mylotarg DAR not given. As to the method: The ability of neoDegrader conjugates to inhibit cell growth was measured using in vitro anti-proliferation assay. […] Conjugates were diluted in complete cell growth medium using 4-fold serial dilutions and 100 µL was added per well. […] Viability of remaining cells was determined by colorimetric WST-8 assay (Dojindo Molecular Technologies, Inc., Rockville, MD, US). WST-8 was added to 10% of the final volume and plates were incubated at 37° C. in a humidified 5% CO2 incubator for 2-4 hours. Plates were analyzed by measuring the absorbance at 450 nm (A450) in a multi-well plate reader. Background A450 absorbance of wells with media and WST-8 only was subtracted from all values. The percent viability was calculated by dividing each treated sample value by the average value of wells with untreated cells. The percent viability value was plotted against the test sample concentration in a semi-log plot for each treatment. IC50 values were calculated automatically.
For orientation: Tetrazolium dyes change colour on reduction, which living cells bring about.

Test [2] relates to AML-193 cell line. The experiment in a line: In vitro antiproliferation assay, General Procedure 2 (CCK-8). It is filed as cell-based. The note with it: leukemia, acute monocytic, monocyte. From the text: (§1) Cell Culture: Cell lines were obtained from the American Type Culture Collection (ATCC, Manassas, VA, USA) or Deutsche Sammlung von Mikroorganismen und Zellkulturen (DSMZ, Braunschweig, Germany) and maintained according to the culturing conditions specified by ATCC or DSMZ. Cells were thawed out and maintained in culture for at least two passages before proceeding with experimental conditions.
(§2) Cytotoxicity assays: For adherent cell lines, the cells were dissociated with enzyme-free PBS-based cell dissociation buffer (Gibco, USA) and plated on tissue culture treated 96-well flat bottom polystyrene plates (Costar, Corning, USA) at appropriate cell densities depending on doubling time of the cells. 18 hours after plating, cells were treated with test articles at appropriate concentrations starting at 100 nM and diluted in 4-fold serial dilutions. For suspension cell lines, the cells were seeded on the same day of treatment and cells were treated as described above. Adherent cells were treated for 5 days and suspension cells were treated for 3 days. Cell proliferation was assessed using the Cell Counting Kit-8 (CCK-8, Dojindo Laboratories, Japan) and measurements were obtained using the Promega GloMax Discover plate reader (Promega, USA). Data were analyzed using GraphPad Prism software (GraphPad Software, San Diego, CA). All data points were obtained from technical triplicates and the experiments were validated using three biological replicates.

Test [3] concerns F-36P cell line. The description is as above. The note with it: leukemia, myelodysplastic syndrome. It is filed as cell-based.
From the text: as §1, §2

Test [4] concerns HL-60 cell line. Described as above. It is filed as cell-based. The note with it: leukemia, acute promyelocytic; read-out: IC50 (M), HL-60.
From the text: as §1, §2

The test system of test [5] is HNT-34 cell line. The description is as above. It is filed as cell-based. The note with it: leukemia, acute myeloid leukemia.
From the text: as §1, §2

Test [6] has as its system Kasumi-6 cell line. Described as above. It is filed as cell-based. The note with it: leukemia, acute myeloid, myeloblast.
From the text: as §1, §2

The test system of test [7] is Kopn-8 cell line. The test is described as above. It is filed as cell-based. The note with it: leukemia, B cell precursor leukemia.
From the text: as §1, §2

Test [8] has as its system ML-2 cell line. The description is as above. It is filed as cell-based. The note with it: leukemia, acute myelomonocytic leukemia; read-out: IC50 (M), ML-2.
From the text: as §1, §2

For test [9], the system named is MOLM13 cell line. Described as above. It is filed as cell-based. The note with it: leukemia, acute,myeloid,leukemia suspension; read-out: IC50 (M), Molm-13.
From the text: as §1, §2

Test [10] relates to MV4-11 cell line. Described as above. It is filed as cell-based. The note with it: leukemia, biphenotypic B myelomonocytic; read-out: IC50 (M), MV-4-11.
From the text: as §1, §2

Test [11] concerns OCI-AML-1 cell line. Described as above. It is filed as cell-based. The note with it: leukemia, acute myeloid leukemia.
From the text: as §1, §2

The test system of test [12] is OCI-AML-5 cell line. The description is as above. It is filed as cell-based. The note with it: leukemia, acute myeloid leukemia.
From the text: as §1, §2

Test [13] has as its system OCI-AML-6 cell line. The description is as above. The note with it: leukemia, acute myeloid leukemia. It is filed as cell-based.
From the text: as §1, §2

The subject of test [14] is OCI-AML2 cell line. The test is described as above. It is filed as cell-based. The note with it: leukemia, acute myeloid leukemia; read-out: IC50 (M), OCI-AML-2.
From the text: as §1, §2

For test [15], the system named is OCI-AML4 cell line. Described as above. It is filed as cell-based. The note with it: leukemia, acute myeloid leukemia; read-out: IC50 (M), OCI-AML-4.
From the text: as §1, §2

Test [16] concerns PLB-985 cell line. The test is described as above. It is filed as cell-based. The note with it: leukemia, acute myeloid leukemia (derivative of HL-60).
From the text: as §1, §2

Test [17] relates to SKM-1 cell line. Described as above. It is filed as cell-based. The note with it: leukemia, myelodysplastic syndrome; read-out: IC50 (M), SKM-1.
From the text: as §1, §2

Test [18] concerns SKNO-1 cell line. Described as above. It is filed as cell-based. The note with it: leukemia, acute myeloid leukemia.
From the text: as §1, §2

The subject of test [19] is EOL-1 cell line. Described as above. The note with it: Leukemia, Human eosinophilic leukaemia; read-out: IC50 (M), EoL-1. It is filed as cell-based, human.
From the text: as §1, §2

In test [20] the test system is RD-ES cell line. Described as above. It is filed as cell-based. The note with it: Ewing’s sarcoma.
From the text: as §1, §2

As to “Mylotarg: approved agent, known antibody drug conjugate MYLOTARG”, the IC50 (in general, the concentration at which inhibition is half-maximal) in [1] is 0.0011 nM; in test [2], above 20 nM; in test [3], above 20 nM; in test [4], 3.26e-10 M; in [5], 3.77 nM; in test [6], above 20 nM. The half-maximal inhibitory concentration (IC50) amounted to 0.687 nM in [7]; 5.02e-11 M in [8]; 2.7e-11 M in test [9]; 5.32e-11 M in test [10]; 0.224 nM in test [11]; 0.0783 nM in test [12]. The IC50 is above 20 nM in test [13]; 3.94e-11 M in test [14]; 2.37e-10 M in test [15]; 7.14 nM in [16]; 2.24e-10 M in [17]; 13.4 nM in [18]. Besides, the concentration for half-maximal inhibition (IC50) in test [19] turned out to be 6.87e-11 M.

B1: Ontuxizumab-Compound (Ia) (conjugate, chains of the INN, looked up)
VH: QVQLQESGPGLVRPSQTLSLTCTASGYTFTDYVIHWVKQPPGRGLEWIGYINPYDDDTTYNQKFKGRVTMLVDTSSNTAYLRLSSVTAEDTAVYYCARRGNSYDGYFDYSMDYWGSGTPVTVSS
VL: DIQMTQSPSSLSASVGDRVTITCRASQNVGTAVAWLQQTPGKAPKLLIYSASNRYTGVPSRFSGSGSGTDYTFTISSLQPEDIATYYCQQYTNYPMYTFGQGTKVQIK
modifications: conjugated to Compound (Ia)
For the molecule B1, in [20], the IC50 worked out at 0.0273 nM.
